In experiment [1] the target is T1, extracellular domain of hTrkB (Homo sapiens, UniProt Q16620).
T1 construct: the extracellular domain of hTrkA, hTrkC, and hTrkB
Briefly: SPR binding kinetics (Biacore T200), hTrkB. Conditions: Monomer (cyclic peptide), 1:1 binding model, 1 to 1000 nM, read-out: binding affinity KD, TrkB. The procedure:
(§1) With respect to the binding kinetics (binding affinity (dissociation constant) KD) of the cyclic peptides towards the extracellular domain of hTrkA, hTrkC, and hTrkB (which will hereinafter be called “hTrkA-C proteins”, collectively) immobilized on a sensor chip via a His6-tag, quantitative measurements making use of surface plasmon resonance (SPR) were carried out to evaluate the binding intensity and selectivity of the cyclic peptide to hTrkB, compared with that to hTrkA and hTrkC.
(§2) The binding kinetics of each peptide towards the hTrkA-C proteins were determined using Biacore T200 (GE Healthcare). The buffer used was HBS-P+ (10 mM HEPES, 150 mM NaCl, and 0.05 vol% surfactant P20, pH 7.4) containing 0.1 vol% DMSO and 1 mM b-dodecyl-maltoside. 100 nM hTrkA-C proteins were immobilized on a Ni^2+ treated NTA chip in accordance with the manufacturer’s instructions (baseline response 1000 to 3000 refraction units). Peptides were injected as an analyte at a flow rate of […] and binding kinetics was modelled using a 1:1 binding model.

Experiment [2] concerns the target T2, extracellular domain of hTrkC (Homo sapiens, UniProt Q16288).
T2 construct: the extracellular domain of hTrkA, hTrkC, and hTrkB
In words: SPR binding kinetics (Biacore T200), hTrkC. Particulars: 1:1 binding model. As to the method: as §1, §2

The target of experiment [3] is extracellular domain of hTrkA (Homo sapiens, UniProt P04629). Briefly: SPR binding kinetics (Biacore T200), hTrkA. Conditions: 1:1 binding model. More on the design: the extracellular domain of hTrkA, hTrkC, and hTrkB. As to the method: as §1, §2
The test system of a further experiment is Akt. In words: Western blot of phosphorylated Akt (S473) in primary hippocampal neurons. Conditions: 1 nM, 15 minutes, primary hippocampal neurons (DIV6); p<0.01 vs DMSO. It is filed as cell-based, mouse. As to the method:
(§3) After washing with 0.1 M PBS twice, cells were lysed in a radio-immunoprecipitation assay (RIPA) buffer containing 50 mM Tris-HCI (pH 7.4), 150 mM NaCl, 2 mM EDTA, 1% Nonidet P-40, 0.5% Na-deoxycholate, 0.1% SDS, 50 mM NaF, 0.2 mM Na3VO4, 10 µg/mL aprotinin, 10 µg/mL leupeptin, and 1 mM phenylmethylsulfonyl fluoride on ice for 30 minutes. After ultrasonic treatment and centrifugation at 20,000 ×g for 30 minutes, the supernatant was subjected to SDS-PAGE. Protein amount was quantified using Bicinchoninic Acid Kit (BCA-1, Sigma).
(§4) The cell lysate (protein amount: 20 µg in P-TrkB, 10 µg in TrkB, and 5 µg in Akt and Erk) was separated using 8% polyacrylamide gel and transferred to a polyvinylidene difluoride membrane (Merck Millipore, Massachusetts, USA). […]
(§5) Finally, after the resulting membrane was washed with TBST, an immune-positive bands were detected by a chemiluminescence method using a Luminata Crescendo HPR substrate (Merck Millipore). The relative phosphorylation level of each kinase was calculated as a ratio of phosphorylated kinase/all kinases.

For another experiment, the system named is Arc. Briefly: qRT-PCR of Arc mRNA in primary cortical neurons. Format: cell-based. Particulars: 1 nM, one hour, primary cortical neurons (DIV6); p<0.01. As to the method:
(§6) The total RNA was quantitatively and qualitatively verified by a NanoDrop spectrometer (Thermo Fisher Scientific) and electrophoresis in a formaldehyde gel.
(§7) Next, 500 ng of the total RNA was reverse-transcribed using Super Script II (Thermo Fisher Scientific). Quantitative PCR was carried out using a SYBR Green real-time PCR system by the previously reported method (Akashi, M.; Takumi, T., The orphan nuclear receptor RORalpha regulates circadian transcription of the mammalian core-clock Bmal1. Nat Struct Mol Biol 2005, 12 (5), 441-8.). A Gapdh gene was used as an internal control. The following primer sequences were respectively used: Gapdh (Forward: 5′-[…]-3′ and reverse: 5′-[…]-3′) (represented by SEQ ID NOS: 14 and 15, respectively), c-fos (Forward: 5′-[…]-3′ and reverse: 5′-[…]-3′) (represented by SEQ ID NOS: 16 and 17, respectively), and Arc (Forward: 5′-[…]-3′ and reverse: 5′-[…]-3′)(represented by SEQ ID NOS: 18 and 19, respectively).

For experiment [4], the system named is 40 RTKs (receptor tyrosine kinases). Briefly: Phospho-RTK array evaluation (off-target activity). Particulars: primary hippocampal neurons (DIV6). It is filed as cell-based, mouse. The procedure:
Comprehensive study of the phosphorylated tyrosine kinase receptor was conducted using a phospho-RTK array in accordance with the manufacturer’s protocol (Proteome Profiler mouse Phospho-RTK Array Kit, ARY014, R&D Systems). The phosphorylation level was evaluated by pixel density and quantified by Image J Software.

A further experiment relates to c-fos. Briefly: qRT-PCR of c-fos mRNA in primary cortical neurons. It is filed as cell-based. Particulars: 1 nM, one hour, primary cortical neurons (DIV6); p<0.01. As to the method: as §6, §7
The next experiment addresses T3, mouse TrkB (Mus musculus, UniProt P15209).
T3 construct: induce phosphorylation of mouse TrkB in primary mouse hippocampal neurons; endogenous in cells; host or cells: primary mouse hippocampal neurons (DIV6)
Briefly: Western blot of phosphorylated Trk in primary mouse hippocampal neurons. Format: cell-based. The procedure:
as §3
The cell lysate (protein amount: 20 µg in P-TrkB, 10 µg in TrkB, and 5 µg in Akt and Erk) was separated using 8% polyacrylamide gel and transferred to a polyvinylidene difluoride membrane (Merck Millipore, Massachusetts, USA). The resulting membrane was blocked for 1 hour with a blocking buffer (5% bovine serum albumin (BSA) tris-buffered physiological saline (TBST) containing 0.05% tween-20), followed by incubation overnight at 4° C. in a blocking buffer containing a primary antibody (rabbit anti-TrkB antibody, 1:1,000 dilution, Cat#4603; rabbit anti-phosphorylated Trk antibody, 1:1,000 dilution, Cat#9141; mouse anti-pan-Akt antibody, 1:2,000 dilution, Cat#2920; rabbit anti-phosphorylated Akt (S473) antibody, 1:2,000 dilution, Cat#4060; rabbit anti-Erk½ antibody, 1:2,000 dilution, Cat#4695; mouse anti-phosphorylated Erk½ antibody, 1:2,000 dilution, Cat#9106 (Cell Signaling Technology)). After washing with TBST for 10 minutes four times, the membrane was incubated with a secondary antibody (peroxidase-conjugated goat anti-rabbit IgG antibody, 1:10,000 dilution, Cat#111-035-003 (Jackson Immuno Research); peroxidase-conjugated sheep anti-mouse IgG antibody, 1:10,000 dilution, Cat#NA9310 (GE Healthcare)) for one hour at room temperature.
Finally, after the resulting membrane was washed with TBST, an immune-positive bands were detected by a chemiluminescence method using a Luminata Crescendo HPR substrate (Merck Millipore). The relative phosphorylation level of each kinase was calculated as a ratio of phosphorylated kinase/all kinases. […]

The subject of experiment [5] is primary hippocampal neurons. Briefly: Immunocytochemistry for evaluation of axonal outgrowth. Conditions: for axonal outgrowth: p<0.01 vs DMSO. It is filed as cell-based. As to the method: The cells were washed twice with 0.1 M phosphate-buffered physiological saline (PBS) and immobilized for 15 minutes with 2% paraformaldehyde (PFA)/4% sucrose (in 0.1 M PBS). After washing three times with PBS, the cells were subjected to permeabilization for 3 minutes with PBS (P\BST) containing 0.2% Triton-X and incubated for one hour with a blocking solution (PBST containing 5% normal goat serum) to prevent non-specific binding. Then, the cells were incubated overnight at 4° C. with a primary antibody diluted with the blocking solution (rabbit anti-Tau polyclonal antibody, 1:1,000 dilution; cat#ab64193 (abcam); mouse anti-MAP2 monoclonal antibody, 1:1,000 dilution, M4403 (Sigma)). After washing of the cells with PBST for 10 minutes was performed four times, they were incubated at room temperature for 2 hours with a fluorescently-labeled secondary antibody diluted with the block solution (Alexa Fluor 488-labeled goat anti-mouse IgG antibody, 1:1,000 dilution, A-11029; Alexa Fluor 568-labeled goat anti-rabbit IgG antibody, 1:1,000 dilution, A-21069 (Thermo Fisher Scientific)).
Next, after washing of the cells with PBST for 10 minutes was performed four times, they were mounted with […] containing DAPI (H-1200 (Vector Laboratories)) and an image was obtained using a Virtual Slide microscope system (VS120 (Olympus)) having a x20 objective lens. The images were analyzed using a neuron J plugin in Image J software and the neurite length tracing and quantification were performed (Meijering, E.; Jacob, M.; Sarria, J. C.; Steiner, P.; Hirling, H.; Unser, M., Design and validation of a tool for neurite tracing and analysis in fluorescence microscopy images. Cytometry A 2004, 58 (2), 167-76.).

The next experiment relates to Erk½. Briefly: Western blot of phosphorylated Erk½ in primary hippocampal neurons. It is filed as cell-based, mouse. Conditions: 1 nM, 15 minutes, primary hippocampal neurons (DIV6); p<0.01 vs DMSO. As to the method:
as §3, §4, §5

Another experiment deals with TrkB (Homo sapiens, UniProt Q16620). Conditions: Non-Patent Document 3; cited from earlier work.

Entries after “also recorded” stand apart in the source; their conditions may differ. Starred links: 1 amine or outer side, 2 acyl side, 3 side chain; linkers in the order of their positions; H or OH if unused. Positions of bridges follow the written chain, without caps; N, C: chain ends. Non-standard residues stand in square brackets, D forms with d. Residues, ends and D or L forms follow the SMILES beside them. Chains are numbered I, II in the order given. NH(CH2CH2O)6CH2CO = O=C(COCCOCCOCCOCCOCCOCCN[*:1])[*:2]; Dap = NC[C@H](N)C(=O)O

T3 sequence (P15209 32-821): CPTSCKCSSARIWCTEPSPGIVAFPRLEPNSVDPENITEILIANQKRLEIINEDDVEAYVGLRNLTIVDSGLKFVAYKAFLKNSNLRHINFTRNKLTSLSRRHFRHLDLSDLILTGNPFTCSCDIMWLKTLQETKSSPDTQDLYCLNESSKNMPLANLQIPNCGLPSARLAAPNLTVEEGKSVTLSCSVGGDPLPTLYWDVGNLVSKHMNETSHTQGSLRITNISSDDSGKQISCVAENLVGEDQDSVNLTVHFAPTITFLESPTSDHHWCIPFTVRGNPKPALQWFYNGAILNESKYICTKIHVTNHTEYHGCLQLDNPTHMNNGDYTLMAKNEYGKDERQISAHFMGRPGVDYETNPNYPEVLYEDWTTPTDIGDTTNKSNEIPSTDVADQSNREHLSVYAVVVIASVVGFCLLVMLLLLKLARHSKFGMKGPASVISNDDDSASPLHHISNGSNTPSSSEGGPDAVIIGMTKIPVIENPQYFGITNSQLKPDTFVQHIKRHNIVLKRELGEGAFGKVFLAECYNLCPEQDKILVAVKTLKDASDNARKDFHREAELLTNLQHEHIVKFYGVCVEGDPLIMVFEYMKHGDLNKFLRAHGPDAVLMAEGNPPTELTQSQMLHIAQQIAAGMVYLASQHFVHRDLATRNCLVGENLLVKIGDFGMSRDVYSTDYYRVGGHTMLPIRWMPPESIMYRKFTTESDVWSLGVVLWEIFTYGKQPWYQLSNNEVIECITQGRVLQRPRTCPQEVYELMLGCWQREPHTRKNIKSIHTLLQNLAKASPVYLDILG
T2 sequence (Q16288 32-429 limits assumed): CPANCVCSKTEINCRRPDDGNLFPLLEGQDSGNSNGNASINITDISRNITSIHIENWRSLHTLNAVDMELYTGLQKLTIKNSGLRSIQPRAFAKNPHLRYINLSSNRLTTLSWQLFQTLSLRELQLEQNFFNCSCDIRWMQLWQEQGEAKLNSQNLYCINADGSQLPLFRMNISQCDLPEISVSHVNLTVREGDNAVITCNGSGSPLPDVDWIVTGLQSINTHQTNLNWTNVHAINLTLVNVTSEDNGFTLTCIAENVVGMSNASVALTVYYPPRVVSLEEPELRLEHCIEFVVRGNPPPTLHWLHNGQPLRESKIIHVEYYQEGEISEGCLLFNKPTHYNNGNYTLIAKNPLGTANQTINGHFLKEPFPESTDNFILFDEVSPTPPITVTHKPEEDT
Sequence of TrkB (Q16620 32-822, species assumed): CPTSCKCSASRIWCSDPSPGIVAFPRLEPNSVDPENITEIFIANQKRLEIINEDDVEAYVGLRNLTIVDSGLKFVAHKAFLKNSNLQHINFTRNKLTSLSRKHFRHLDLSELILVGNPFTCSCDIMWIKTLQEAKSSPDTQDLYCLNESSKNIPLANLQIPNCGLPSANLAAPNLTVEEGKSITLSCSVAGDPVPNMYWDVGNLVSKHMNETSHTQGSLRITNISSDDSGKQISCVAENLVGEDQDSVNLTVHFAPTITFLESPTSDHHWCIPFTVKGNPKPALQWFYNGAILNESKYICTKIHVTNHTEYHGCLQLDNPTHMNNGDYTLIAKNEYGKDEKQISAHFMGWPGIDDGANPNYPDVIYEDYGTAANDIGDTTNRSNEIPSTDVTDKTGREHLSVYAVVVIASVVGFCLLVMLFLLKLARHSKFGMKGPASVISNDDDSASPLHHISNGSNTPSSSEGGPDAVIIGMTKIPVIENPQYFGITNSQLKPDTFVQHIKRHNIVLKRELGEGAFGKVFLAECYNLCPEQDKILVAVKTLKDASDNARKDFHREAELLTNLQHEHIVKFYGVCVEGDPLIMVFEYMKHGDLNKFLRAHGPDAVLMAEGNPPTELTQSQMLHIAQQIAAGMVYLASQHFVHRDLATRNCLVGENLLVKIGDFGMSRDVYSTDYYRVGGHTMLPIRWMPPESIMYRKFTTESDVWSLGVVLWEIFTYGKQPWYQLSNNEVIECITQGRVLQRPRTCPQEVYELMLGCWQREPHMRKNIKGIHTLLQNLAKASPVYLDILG

On to `CC(C)C[C@@H]1NC(=O)[C@H](CCCNC(=N)N)NC(=O)[C@H](Cc2ccccc2)NC(=O)[C@H](CCCNC(=N)N)NC(=O)[C@@H]2CCCN2C(=O)[C@H]([C@@H](C)O)NC(=O)[C@H](CCC(N)=O)NC(=O)[C@H](Cc2c[nH]c3ccccc23)NC(=O)[C@H](Cc2ccccc2)NC(=O)[C@H](CCCNC(=N)N)NC(=O)[C@H](Cc2ccc(O)cc2)NC(=O)CSC[C@@H](C(=O)NCC(=O)N[C@@H](CO)C(=O)NCC(=O)N[C@@H](CO)C(=O)NCC(=O)N[C@@H](CO)C(N)=O)NC1=O` [TrbL2] ({CH2CO}-YRFWQTPRFRLCGSGSGS-NH2; thioether N-12), for which the Kd was found to be 70 nM in experiment [1] and 100 nM in [3] (Monomer (cyclic peptide), 1 to 1000 nM, read-out: binding affinity KD, TrkA). Further, the “binding affinity KD, TrkC” value in experiment [2] (Monomer (cyclic peptide), 1 to 1000 nM) is “N.B”.

Turning to `CC(C)C[C@@H]1NC(=O)[C@H](Cc2ccc(O)cc2)NC(=O)CSC[C@@H](C(=O)NCC(=O)N[C@@H](CO)C(=O)NCC(=O)N[C@@H](CO)C(=O)NCC(=O)N[C@@H](CO)C(=O)NCCOCCOCCOCCOCCOCCOCC(=O)NC[C@H](NC(=O)COCCOCCOCCOCCOCCOCCNC(=O)[C@H](CO)NC(=O)CNC(=O)[C@H](CO)NC(=O)CNC(=O)[C@H](CO)NC(=O)CNC(=O)[C@@H]2CSCC(=O)N[C@@H](Cc3ccc(O)cc3)C(=O)N[C@@H](CC(C)C)C(=O)N[C@@H](CCCNC(=N)N)C(=O)N3CCC[C@H]3C(=O)N[C@@H](CCCNC(=N)N)C(=O)N[C@@H](Cc3ccc(O)cc3)C(=O)N[C@@H](CCCCN)C(=O)N[C@@H](Cc3ccccc3)C(=O)N[C@@H](Cc3c[nH]c4ccccc34)C(=O)N2)C(N)=O)NC(=O)[C@H](Cc2c[nH]c3ccccc23)NC(=O)[C@H](Cc2ccccc2)NC(=O)[C@H](CCCCN)NC(=O)[C@H](Cc2ccc(O)cc2)NC(=O)[C@H](CCCNC(=N)N)NC(=O)[C@@H]2CCCN2C(=O)[C@H](CCCNC(=N)N)NC1=O` [DiTrbL3] (I: {CH2CO}-YLRPRYKFWCGSGSGS[NH(CH2CH2O)6CH2CO][Dap]-NH2 / II: {CH2CO}-YLRPRYKFWCGSGSGS[NH(CH2CH2O)6CH2CO]; amide I:18-II:C; thioether I:N-I:10, II:N-II:10), the “phosphorylation of Akt” value in the experiment on Akt is “drastically activated phosphorylation; also recorded: a significant difference is present in induction between DMSO and DiTrbL3”. In addition, in [2] (Homodimer (peptide complex)), the “binding affinity KD, TrkC” value is “N.B”. Moreover, the “mRNA expression of Arc” value with Arc is recorded as “significantly increased”. Also, in experiment [4] (1 nM, 40 RTKs), the “RTK phosphorylation in phospho-RTK array” value was “phosphorylated only TrkB”. Further, the “mRNA expression of c-fos” value in the experiment on c-fos is “significantly increased”. The “binding affinity KD, TrkA” value in [3] (Homodimer (peptide complex)) was “N.B”. Further, the “TrkB phosphorylation, dose titration” value on mouse TrkB (0.2 nM, p<0.01 vs DMSO) is on record as “obviously induces TrkB phosphorylation”. For the same molecule, the “phosphorylation of TrkB” value at mouse TrkB (1 nM, 15 minutes, primary mouse hippocampal neurons (DIV6)) is reported as “induced phosphorylation of TrkB”. Moreover, the axonal outgrowth entry in experiment [5] (10 nM, DIV0 to 3) is recorded as “significantly reinforced the axonal outgrowth”; in experiment [5] (100 nM, DIV0 to 3), “significantly reinforced the axonal outgrowth”. Moreover, the “axonal length of primary neurons” value in experiment [5] (treated for 3 days (DIV0 to 3)) is recorded as “elongated”. For the same molecule, the “phosphorylation of Erk½” value in the experiment on Erk½ was “drastically activated phosphorylation; also recorded: a significant difference is present in induction between DMSO and DiTrbL3”.

Turning to “BDNF: brain-derived neurotrophic factor, natural protein agonist of TrkB, positive control”, the “RTK phosphorylation in phospho-RTK array” value in experiment [4] (0.1 nM, incubation for one hour as printed) is given as “caused phosphorylation of TrkB”. Also, the “affinity for TrkB relative to that of p75” value with TrkB is “at least 10 times”. In addition, the “phosphorylation of Trk” value in the experiment with mouse TrkB (0.1 nM, 15 minutes, primary mouse hippocampal neurons (DIV6)) is “induced phosphorylation of Trk”. In addition, in experiment [5] (2 nM BDNF, DIV0 to 3), the “axonal length of primary neurons” value is given as “elongated”.

The values above are taken from patent US20230312651A1, “Cyclic Peptide, Peptide Complex, and Drug Composition Containing Said Cyclic Peptide and/or Said Peptide Complex” (The University of Tokyo, priority 2020, published 2023).
